In patent US20240343760A1, “PEPTIDES FOR CELL-TYPE SPECIFIC TARGETING OF THE RETINA” (Oregon State University, priority 2021, published 2024):
“Also recorded” adds a separate entry of the source. Like-named read-outs stand apart in the source and are kept apart here. Ends that are not written are not given here. TAMRA = 5-(and -6)-carboxytetramethylrhodamine fluorophore, conjugated to the side chain of the C-terminal Cys

Tests used:
661w cone cells [1] = test: Cell ELISA of phage-displayed peptides on 661w cone cells; assay type: cell-based, mouse; details: for binding affinity (OD450) 661w cone cells compared to hARPE19 cells: ratio 661w / hARPE19; for binding to 661w cone cells (cell ELISA, OD450): vs empty bacteriophage control
Description: (§1) ARPE19 and 661w cells were seeded a day before the experiment on 96 well plates (10^4 cells/well). On day of experiment, cells were first fixed in 4% paraformaldehyde solution at room temperature for 15 minutes. This was followed by three washes with PBS and then the cells were blocked for 30 minutes at room temperature with 1% BSA in PBS. […] The wells were then washed with 0.1% TBST and individual phage clones were incubated for one hour at room temperature in blocking buffer with gentle rocking. After phage incubation, wells were washed three times with 0.1% TBST to reduce non-specific binding and eliminate weakly bound phages. Biotin-conjugated, mouse anti-M13 phage coat protein primary antibody was added (Thermo Fisher cat. #MA1-34468) at 1:5000 dilution in 0.1% TBST and incubated for 1 hour at room temperature with gentle rocking. The wells were washed three more times with 0.1% TBST and subsequently incubated with poly-HRP streptavidin secondary antibody (Thermo Fisher cat. #N200) at 1:10000 dilution in 0.1% TBST for 1 hour at room temperature. Wells were then washed three times with 0.1% TBST and 3,3′,5,5′-Tetramethylbenzidine (Thermo Fisher) was added to the wells and incubated at room temperature for 5-10 minutes and the reaction was stopped with 0.2 M Sulfuric Acid and absorbance was read at 450 nm using TECAN Infinite200 Pro spectrophotometer (Tecan Group Ltd., Switzerland).
(§2) After identifying 30 novel peptide sequences, top-performing candidates were identified that could target LNPs to the neural retina. Since bacteriophages were eluted from the entire neural retina, the candidates were pre-screened for their ability to bind to the cell of interest, the PRs. Single bacteriophage-peptides were amplified in E. coli, and a cell-based enzyme-linked immunosorbent assay (ELISA) was developed against the 661w mouse cone PR cell line and the hARPE19 cell line as a control. As expected, for most of the bacteriophage-peptide candidates, binding affinities were weaker when tested against RPE cells compared to 661w cone cells. […] However, the binding affinity, as measured by OD450, was close to 2-fold higher when binding to 661w cone cells compared to hARPE19 cells.

hARPE19 cells = test: Cell ELISA of phage-displayed peptides on hARPE19 cells; assay type: cell-based; details: vs empty bacteriophage control
Description: as §1, §2

[2] = test system: PR and RPE/choroid layers; test: In vivo validation with TAMRA-labelled peptides, intravitreal or subretinal injection
Description: (§3) For subretinal injections, mice were topically administered 0.5% proparacaine, 1% tropicamide, and 2.5% phenylephrine and anesthetized with ketamine (100 mg/kg)/xylazine (10 mg/kg). To initiate the injection, 2.5% hypromellose was used to cover the eye and a 30-gauge needle was used to make an incision in the limbus. A glass coverslip was then placed over the eye to allow for visualization of the retina. Going through the scleral incision in the limbus, using a Hamilton syringe with a 33-gauge blunt needle, 1 μL PBS, peptide, or LNP-Cre were delivered to the subretinal space. A 2% fluorescein solution was added to the PBS and LNPs so retinal detachment could be confirmed. For most injections, scleral incisions in the limbus were created nasally and PBS or LNPs were delivered temporally. Intravitreal injections were performed as previously described elsewhere (25). […] For intravitreal injections 1.1 μg (1.5 μL, 741 ng/μL) was injected.
(§4) At specified time points, mouse eyes were enucleated and fixed using 4% paraformaldehyde in PBS overnight at 4° C. Eyes were cryopreserved in 30% sucrose solution for 2 hours prior to embedding in OCT media followed by cryo-sectioning and confocal imaging. Retinal cryo-sections were 12 μm thick and DAPI stained prior to confocal imaging done using TCS SP8 X (Leica Microsystems, Buffalo Grove, IL). Z-stacks (spanned 10 μm with 1 μm interval) were collected using a 40× objective, and maximum intensity projections were used for further analysis.
(§5) All confocal imaging was performed using TCS SP8 X (Leica Microsystems, Buffalo Grove, IL). Z-stacks (spanned 10 μm with 1 μm interval) were collected using a 20× or 40× objective, and maximum intensity projections were used for further analysis.
(§6) For TAMRA quantification from peptide injections, region of interest (ROI) were created for RPE/choroid and PR cell layer for mean fluorescent intensity values. Fold change measurements were compared to TAMRA-only controls. An ordinary one-way ANOVA, with Tukey's correction for multiple comparisons test was used for comparisons between groups (Prism 8 software, GraphPad Software, La Jolla, CA). Data are presented as mean±SEM. A p-value <0.05 was considered as statistically significant.

661w cone cells [3] = test: Cell internalization of TAMRA-labeled peptides, 661w cone cells; assay type: cell-based, mouse; details: 661w cells, TAMRA-conjugated peptide, 30 minutes
Description: Approximately 50,000 cells were seeded per well of 8-well μ-Slide (Ibidi, Fitchburg, WI) and incubated with 10 nM and 50 nM TAMRA-labeled peptides for 30 minutes at 37° C. followed by washing with PBS, fixation in 4% Paraformaldehyde for 10 mins at room temperature. Cells were then washed three times, DAPI stained and cover slipped for confocal microscopy imaging. Fluorescence confocal images of cell internalization studies were captured with the same exposure settings and were analyzed for fluorescence intensity using ImageJ (version 1.45; National Institutes of Health, Bethesda, MD). First, the hARPE or 661w cells were outlined and ImageJ calculated the pixel intensity of the different cell treatments with different peptides. At least three images were analyzed for each peptide tested.
TAMRA-conjugated peptides were added to hARPE19 and 661w cells at a 10 nM and 50 nM concentration to evaluate their internalization (FIGS. 2E to 2H and 8A to 8B). After 30 minutes of incubation at 37° C., cells were fixed and DAPI stained for confocal imaging.

[4] = test system: PR and RPE/choroid layers; details: mouse, in vivo
Description: as §3, §4, §5, §6

Substance | binding affinity (OD450) 661w cone cells compared to hARPE19 cells (661w cone cells [1]) [fold] | binding to 661w cone cells (cell ELISA, OD450) (661w cone cells [1]) | binding to hARPE19 (RPE) cells (cell ELISA, OD450) (hARPE19 cells) | other results
ATGPRSV [Peptide 57] | ~2 | high binding | highest affinity | binding to hARPE19 (RPE) cells (cell ELISA, OD450) (hARPE19 cells; listed as MH57): significantly higher binding
DGPPRKP [Peptide 3] |  |  | highest affinity | 
DGPPRKPGGGSC (DGPPRKPGGGSC(TAMRA); not fully specified) [MH3, peptide 3 with added linker; TAMRA-labelled at carboxy-terminal Cys in cell and in vivo tests] |  | reduced binding affinity; also recorded: low-binder | significantly higher binding | retinal localization of TAMRA-labelled peptide (confocal) [2]: poor accumulation in RPE and PRs
HLSSLTP [Peptide 54] |  | highest affinity | highest affinity | binding to hARPE19 (RPE) cells (cell ELISA, OD450) (hARPE19 cells; listed as MH54): significantly higher binding
LAFHRMP [Peptide 52] | ~2 | highest affinity | highest affinity | binding to 661w cone cells (cell ELISA, OD450) (661w cone cells [1]; listed as MH52): high binding; binding to hARPE19 (RPE) cells (cell ELISA, OD450) (hARPE19 cells; listed as MH52): significantly higher binding
MPVAVYR [Peptide 50] |  | highest affinity | highest affinity | 
MPVAVYRGGGSC (MPVAVYRGGGSC(TAMRA)) [MH50] | ~2 | high binding; also recorded: high-binders; also recorded: top 2 performing | significantly higher binding | cellular uptake compared to the negative control MH3 (661w cone cells [3]): 4.1 fold; retinal localization of TAMRA-labelled peptide (confocal) [4]: localized to PRs including the outer nuclear layer and inner/outer segments as well as RPE
SNLAAFP [Peptide 43] |  | highest affinity |  | 
SNLAAFPGGGSC (SNLAAFPGGGSC(TAMRA)) [MH43, peptide 43 with added linker; TAMRA-labelled at carboxy-terminal Cys in cell and in vivo tests] |  | high-binders |  | 
SPALHFL [Peptide 42] |  | highest affinity |  | 
SPALHFLGGGSC (SPALHFLGGGSC(TAMRA)) [MH42] | ~2 | high binding; also recorded: high-binders; also recorded: top 2 performing | significantly higher binding | cellular uptake compared to the negative control MH3 (661w cone cells [3]): 1.7 fold; clearance of labelled peptide from retina [4]: ≤ 24 h; retinal localization of TAMRA-labelled peptide (confocal) [4]: localized to PRs including the outer nuclear layer and inner/outer segments as well as RPE; timepoint of maximum level of labelled peptide in retina [4]: 6 h
